For 39 molecules, absorption maximum results are on record in the Deep4Chem optical property database.

The series in a line: solvent given as SMILES.

For `C(=C\c1ccncn1)/c1ccc(N(c2ccccc2)c2ccccc2)cc1`, the absorption maximum is 398 nm (in C1CCOC1); 394 nm (in CC#N); 392 nm (in CCCCCCC); 401 nm (in CS(C)=O); 400 nm (in ClCCl).

`CCCc1c(C(=O)c2ccc3c4c(cccc24)-c2cccc4c2C3CC=C4)c2ccc3cccc4c5cccc6ccc1c(c65)c2c34` (stereo unspecified) gave an absorption maximum (in ClCCl) of 468 nm.

Regarding `COc1cccc2oc(-c3cc4c(OC)cccc4oc3=O)cc12`, the absorption maximum (in CC#N) came to 383 nm; the absorption maximum (in CCOC(C)=O) came out at 385 nm; the absorption maximum (in CS(C)=O) was 389 nm; the absorption maximum (in Cc1ccccc1) came to 389 nm; the absorption maximum (in O) amounted to 384 nm.

In the case of `C(#Cc1ncc(-c2ccccc2)o1)c1ccco1`, the absorption maximum (in ClCCl) is 325 nm.

In the case of `c1ccc(-c2cc(-c3ccc4ccc5c(-c6ccnc(-c7ccccn7)c6)ccc6ccc3c4c65)ccn2)nc1`, the absorption maximum is 362 nm (in C1CCOC1); 360 nm (in CC#N); 360 nm (in CCC#N); 360 nm (in CCCC#N); 361 nm (in CCCCCC); 361 nm (in CCCO). Further, the absorption maximum amounted to 361 nm (in CCO), 363 nm (in CO) and 362 nm (in Cc1ccccc1).

In the case of `C[NH+](C)c1c2ccccc2cc2ccccc12`, the absorption maximum (in O) worked out at 389 nm.

`CC1(C)Nc2cc3nc4cc(F)c(F)cc4nc3cc2N1`: the absorption maximum (in CCO) came to 440 nm.

Consider `CN(C)c1cc2sc3cc(N(C)C)c(F)cc3c(=O)c2cc1F`, for which the absorption maximum (in CCO) stood at 382 nm.

For the molecule `CC[n+]1c(C=C2C(=O)C(C=C3N(C)c4ccccc4C3(C)C)=C2[O-])sc2ccccc21`, the absorption maximum by setting is: (in CO) 635 nm; (in ClC(Cl)Cl) 649 nm; (in ClCCl) 650 nm.

In turn, `c1ccc(C(=C(c2ccccc2)c2ccc(-c3nc4c(-c5ccc(C(=C(c6ccccc6)c6ccccc6)c6ccccc6)cc5)sc(-c5ccc(C(=C(c6ccccc6)c6ccccc6)c6ccccc6)cc5)c4nc3-c3ccc(C(=C(c4ccccc4)c4ccccc4)c4ccccc4)cc3)cc2)c2ccccc2)cc1` registered an absorption maximum (in Cc1ccccc1) of 538 nm and an absorption maximum (in ClCCl) of 520 nm.

For the molecule `CCOC(=O)CCCCCn1c2ccccc2c(=O)c2cc(I)ccc21`, the absorption maximum (in CO) was found to be 414 nm.

`CN1C(=CC2=C([O-])C(=O)C2=C(C#N)C#N)C=Cc2ccccc21` yielded an absorption maximum (in CCO) of 515 nm.

Molecule `COC(=O)c1c(C(=O)OC)c2ccc(C)nn2c1C` yielded an absorption maximum (in C1CCCCC1) of 380.4 nm.

In the case of `O=c1c2cc(F)c(O)cc2oc2cc(N3CCCCC3)c(F)cc12`, for the setting “in CCO”, the absorption maximum stood at 373 nm.

For the setting “in CC#N”, `CN(C)c1ccc(-n2c(-c3ccncc3)nc3nccnc32)cc1` gave an absorption maximum of 309 nm.

As to `CN(C)c1ccc(/C=C/C=C2\CCCC2=O)cc1`, the absorption maximum was 409 nm (in CC#N); 416 nm (in CC(C)=O); 420 nm (in CC(C)O); 394 nm (in CCCCCC); 425 nm (in CCCCO); 422 nm (in CCCO). The molecule also displayed an absorption maximum (in CCO) of 422 nm; an absorption maximum (in CCOC(C)=O) of 408 nm; an absorption maximum (in CCOCC) of 399 nm; an absorption maximum (in CN(C)C=O) of 408 nm; an absorption maximum (in CO) of 420 nm; an absorption maximum (in CS(C)=O) of 416 nm. In addition, the absorption maximum amounted to 409 nm (in Cc1ccccc1); 407 nm (in ClC(Cl)(Cl)Cl); 404 nm (in ClC(Cl)Cl); 420 nm (in ClCCl); 411 nm (in c1ccccc1); 419 nm (in c1ccncc1).

The molecule `c1ccc(-n2c(-c3ccc([Si](c4ccc(-c5nc6ccccc6n5-c5ccccc5)cc4)(c4ccc(-c5nc6ccccc6n5-c5ccccc5)cc4)c4ccc(-c5nc6ccccc6n5-c5ccccc5)cc4)cc3)nc3ccccc32)cc1` had an absorption maximum (in ClCCl) of 306 nm.

In the case of `O=Cc1ccc(C2=C3C=c4c(oc5ccccc45)=[N+]3[B-](F)(F)n3c2cc2c4ccccc4oc23)cc1`, the absorption maximum runs as follows: (in C1CCCCC1) 592.5 nm; (in C1CCOC1) 589 nm; (in CC#N) 585.5 nm; (in CCOC(C)=O) 587 nm; (in CN(C)C=O) 589 nm; (in CO) 583 nm. Besides, the absorption maximum (in Cc1ccccc1) is reported as 597 nm and the absorption maximum (in ClCCl) is 593.5 nm.

On to `CCN(CC)c1ccc(/C=C/C2=[O+][B-](F)(F)Oc3c2c(=O)oc2cc(N(CC)CC)ccc32)cc1`, for which the absorption maximum reads like this: (in C1CCCCC1) 542 nm; (in C1COCCO1) 569 nm; (in CC#N) 589 nm; (in CC(C)=O) 584 nm; (in CCO) 581 nm; (in CCOC(C)=O) 571 nm. Moreover, the absorption maximum by setting is: (in CO) 582 nm; (in CS(C)=O) 607 nm; (in Cc1ccccc1) 567 nm; (in ClC(Cl)Cl) 581 nm; (in ClCCl) 587 nm; (in OCC(O)CO) 610 nm. Under “in OCCO”, the absorption maximum was found to be 605 nm.

Regarding `O=C([O-])c1ccc(C(=O)[O-])c(C2=c3cc4c5c(c3Oc3c2cc2c6c3CCCN6CCC2)CCC[N+]=5CCC4)c1`, the absorption maximum by setting is: (in CCO) 571 nm; (in O) 574 nm.

Turning to `CC(C)CCC[C@@H](C)[C@H]1CC[C@H]2[C@@H]3CC=C4C[C@@H](OC(=O)Oc5cc(/C=C/C=C/c6ccc(N(C)C)cc6)ccc5[N+](=O)[O-])CC[C@]4(C)[C@H]3CC[C@]12C`, the absorption maximum (in CO) worked out at 448 nm.

In the case of `F[B-]1(F)OC(c2ccc3ccccc3c2)=CC(c2ccc3ccccc3c2)=[O+]1`, the absorption maximum is given as 419 nm (in CC#N) and 412 nm (in ClC(Cl)(Cl)Cl).

As to `Oc1cc2ccc3cc(O)cc4ccc(c1)c2c34`, the absorption maximum (in CO) is recorded as 381 nm.

Consider `CCN(CC)c1ccc2c(c1)oc(=O)c1c(=O)oc3cc(C#Cc4ccc(C#N)cc4)ccc3c12`, for which the absorption maximum came out at 481 nm (in CS(C)=O) and 476 nm (in ClCCl).

As to `COC1=[N+]2C(=C(c3ccccc3)c3ccc(OC)n3[B-]2(F)F)C=C1`, the absorption maximum by setting is: (in CC#N) 510 nm; (in CCCCCC) 513 nm; (in CCOC(C)=O) 512 nm; (in CO) 511 nm; (in ClCCl) 515 nm.

In turn, `Nc1cc2oc3cc(O)c(F)cc3c(=O)c2cc1F` gave an absorption maximum (in CCO) of 366 nm.

For the setting “in ClCCl”, `COc1ccc(-c2c3cc4cc(C)sc4cc3c(-c3ccc(OC)cc3)c3cc4cc(C)sc4cc23)cc1` gave an absorption maximum of 500 nm.

In the case of `CC(C)(C)c1ccc2c(c1)c1cc(C(C)(C)C)ccc1n2-c1ccc(-c2ccc3c(c2)C2(c4cc(-c5ccc(-n6c7ccc(C(C)(C)C)cc7c7cc(C(C)(C)C)ccc76)cc5)ccc4-3)c3ccccc3S(=O)(=O)c3ccccc32)cc1`, the absorption maximum (in ClCCl) amounted to 353 nm.

With `F[B-]1(F)OC(c2ccc(C(F)(F)F)cc2)=Cc2c3ccccc3cc[n+]21`, the absorption maximum (in ClC(Cl)Cl) was 398.5 nm.

Regarding `O=C(NCc1cc(=O)oc2cc(O)c(Br)cc12)c1cccnc1`, the absorption maximum (in CC#N) is 392 nm, the absorption maximum (in CO) turned out to be 372 nm, the absorption maximum (in CS(C)=O) came to 408 nm and the absorption maximum (in O) is 330 nm.

`Cc1nc(-c2cc(F)ccc2O)n2c1CCCC2`: the absorption maximum (in ClCCl) came out at 326 nm.

Turning to `CCCCCCCCC1(CCCCCCCC)c2cc(-c3ccc(C=C4C(=O)c5ccccc5C4=O)cc3)ccc2-c2ccc(-c3ccc(C=C4C(=O)c5ccccc5C4=O)cc3)cc21`, the absorption maximum by setting is: (in C1CCOC1) 436 nm; (in CC(C)=O) 433 nm; (in CCCCCC) 419 nm; (in CS(C)=O) 441 nm; (in Cc1ccccc1) 429 nm; (in ClC(Cl)Cl) 444 nm.

For `F[B-]1(F)n2c(cc(Br)c2Br)C(c2ccccc2)=C2C=C(Br)C(c3ccc[nH]3)=[N+]21`, the absorption maximum (in ClC(Cl)Cl) is 626 nm.

With `O=Cc1cc(O)c(C=O)cc1O`, the absorption maximum (in C1CCOC1) came to 414 nm; the absorption maximum (in C1COCCO1) is recorded as 414 nm; the absorption maximum (in CC#N) turned out to be 413 nm; the absorption maximum (in CC(C)=O) is listed as 413 nm; the absorption maximum (in CCCO) is listed as 415 nm; the absorption maximum (in CCO) was 413 nm. The absorption maximum by setting is: (in CN(C)C=O) 414 nm; (in CN(C)P(=O)(N(C)C)N(C)C) 427 nm; (in CNC=O) 377 nm; (in CO) 384 nm; (in CS(C)=O) 417 nm; (in NC=O) 356 nm.

Turning to `C1=C(c2ccccc2)S[C@]23C1=C(c1ccccc1)[C@H](c1ccccc12)c1ccccc13`, the absorption maximum (in ClCCl) is reported as 378 nm.

`c1ccc(-c2nn(-c3ccccc3)c3nc4ccc(N(c5ccccc5)c5ccccc5)cc4cc23)cc1`: the absorption maximum stood at 452.08 nm (in C1CCCCC1); 450.05 nm (in C1CCOC1); 447.03 nm (in CC#N); 448.03 nm (in CC(C)=O); 451.06 nm (in CCCCCl); 451.06 nm (in CCCCOCCCC). Further, the absorption maximum (in CN(C)C=O) came out at 450.05 nm.

`c1ccc(N2c3ccc4ccccc4c3-c3c4ccccc4cn[n+]3[B-]2(c2ccccc2)c2ccccc2)cc1` returned an absorption maximum (in Cc1ccccc1) of 524 nm.

`CCCCCCn1c2c(c3ccccc31)-c1c(c3ccccc3n1CCCCCC)-c1c(c3ccccc3n1CCCCCC)-c1c-2c2ccccc2n1CCCCCC`: where the note is “in ClCCl”, the absorption maximum was 312 nm.

As to `COc1ccc(C2=C(C)C3=C(c4c(-c5ccccn5)nc5ccccn45)c4c(C)c(-c5ccc(OC)cc5)c(C)n4[B-](F)(F)[N+]3=C2C)cc1`, where the note is “in ClCCl”, the absorption maximum was 555 nm.
